# Source: US20240075004A1, “VERY-LONG-CHAIN POLYUNSATURATED FATTY ACIDS, ELOVANOID HYDROXYLATED DERIVATIVES, AND METHODS OF USE” (The Board of Supervisors of Louisiana State University and …, priority 2020, published 2024)
# Columns and labels:
# [1] = tested on: primary human RPE cells; experiment: Primary human RPE cells challenged with OAβ: SA-β-Gal staining and qPCR; format: cell-based; details: 10 μM OAβ; qPCR after 3 days, SA-β-Gal after 7 days
# Protocol: All experiments with primary human RPE cells were approved by the Institutional Review Board of LSUHNO and conducted in accordance with NIH guidelines. Cells were collected from anonymous donors provided by eye banks. Briefly, globes of a person, without eye pathology were obtained from NDRI within 24 hours after death from head trauma. Globes were opened, and RPE cells harvested and cultured (1, 2) and grown in MEM medium supplemented with 10% FBS, 5% NCS, non-essential amino acids, Penicillin-Streptomycin (100 U/mL), human fibroblast growth factor 10 ng/ml and incubated at 37° C. with a constant supply of 5% CO2. Cells integrity was validated as in previous study (3). For oligomeric Aβ treatment, cells were seeded in the 6-well plates, 30.000 cells/cm2. After 2 days, sub-confluent cells were treated with 10 μM OAβ or with PBS (vehicle control).
# Aβ (1-42) (HFIP-treated, ANASPEC Company, Fremont, CA, USA, Cat AS-64129) was resuspended by adding 1% NH4OH/Water and DMSO to obtain a concentration 500 μM and sonicated for 10 min. […]
# Cells were visualized using SA-β-Gal staining kit (Cat 9860, Cell Signaling Technology, MA, USA). […] Pictures were taken under brightfield microscope (Nikon Eclipse TS100) 200× magnification after the development of blue color, and cells counted in 10 different random fields per well. […]
# [2] = tested on: human RPE cells; experiment: Oxidative-stress and Erastin induced cell death in human RPE cells; format: cell-based
# [3] = tested on: pro-inflammatory transcriptome and pro-homeostatic pathways in RPE single-cells; experiment: UOS transcriptome in RPE single-cells; format: cell-based; details: 96 per sample
# Excerpt: Dots in box plots represent expression of the gene for a single RPEC (total of 96 per sample). P<0.001 (***), P<0.01 (**), One-way Anova, with Post-Hoc Tukey HSD test for multiple comparisons.
# [4] = tested on: degenerating neurons of hypothalamus; experiment: Fluoro-Jade B staining of organotypic slices of hypothalamus; format: cell-based; details: 500 nM, 48 h incubation, adult obese diabetic db/db mice
# Excerpt: Fluoro-Jade b (F-Jb) stains degenerating neurons.
# [5] = tested on: TP53 and IL8; experiment: Human adipocytes treated with IL1β: TP53 and IL8 expression by Taqman Real time PCR; format: cell-based
# Excerpt: A) experimental design. B) expression levels of TP53 and IL8 in human diabetic and non-diabetic adipocytes by the means of Tagman Real time PCR.
# [6] = tested on: IL6; experiment: IL6 (marker of SASP) induced by IL1β in diabetic hypothalamus; format: cell-based; details: diabetic db/db mice hypothalamus, different effects in female and male mice
# [7] = tested on: Adiponectin; experiment: Adiponectin levels in diabetic hypothalamus and adipose tissue
# [8] = tested on: autophagy, UPR, MMP, senescence and inflammation genes in HNEpC; experiment: HNEpC challenged with HDM: gene expression; format: cell-based, human; details: 500 nM; HDM 30 μg/ml
# Protocol: HDM triggered multiple signaling in human nasal epithelial cells. HNEpC challenged with HDM (D. farinae+D. pteronyssinus) (30 μg/ml) induces the expression of several genes related with autophagy (ATG3, ATG5, ATG7, BECLIN-1, and P62), unfolded protein response (UPR) (ATF6, CHOP, and IRE1) and matrix metalloproteinases (MMPs) (MMP8, MMP2, MMP9, MMP3, MMP12, TIMP1, and TIMP2). HDM stressors also induce the expression of senescence (P21, P16, P27, and P53) and inflammation genes (IL-1a, IL-6, and IL-10) on HNEpC. […] (*p<0.0001).
SMILES,"OAβ-altered RPE cell morphology, SASP (SA-β-Gal staining) and expression of senescence, AMD, matrix metalloproteinase and autophagy-related genes [1]",oxidative-stress and Erastin induced cell deaths [2],UOS up-regulation of pro-inflammatory transcriptome and down-regulation of pro-homeostatic pathways [3],Fluoro-Jade b (F-Jb) signal (neuroprotection) [4],"IL8 brought down (elevated by IL1β) ([5]; 500 nM, both diabetic and non-diabetic adipocytes)",levels of TP53 mRNA ([5]; human adipocytes from diabetic patient treated with IL1β),effect of IL1β (expression levels of TP53 and IL8) ([5]; human diabetic adipocytes),levels of IL6 (marker of SASP) [6],adiponectin in subcutaneous adipose tissue (SAT) and visceral adipose tissue (VAT) [7],levels of Adiponectin ([7]; ELV34 treatment),adiponectin in diabetic hypothalamus ([7]; female and males),"expression of MMP genes (MMP8, MMP2, MMP9, MMP3, MMP12, TIMP1, TIMP2) [8]",expression of inflammation / senescence-associated cytokine genes [8],"expression of senescence genes (P21, P16, P27; except P53) [8]"
CC/C=C\C[C@H](O)\C=C/C=C/C=C/[C@H](O)C/C=C\C/C=C\CCCCCCCCCCCCC(=O)O [ELV-N-32],reverted these effects,counteracted,suppress these changes,–,–,–,–,–,–,–,–,–,–,–
CC/C=C\C[C@H](O)\C=C/C=C/C=C/[C@H](O)C/C=C\C/C=C\CCCCCCCCCCCCCCC(=O)O [ELV-N-34],reverted these effects,–,–,decrease of F-Jb signal,around 40 folds,down to non-diabetic control levels,revert the effect,reduced,Differential effect,increased,trend of increase,inhibits these effects,inhibits these effects,inhibits these effects
